Article PMC12040169 (PLOS Biology, 2025)

Test: in vitro
Settings: human, hela cells, % viability

| SMILES | viability at 28.5 h, 10 µM | viability at 28.5 h, 10 µM (bulk resorufin, single well) |
| --- | --- | --- |
| Cc1csc2ncc(C(=O)Nc3ccc(OC(F)(F)F)cc3)c(=O)n12 [CBK287457] | 108% |  |
| CS(=O)(=O)N1CCN(c2ccc(NC(=O)c3ccc(-c4cccc([N+](=O)[O-])c4)o3)cc2)CC1 [CBK268602] | 98.6% |  |
| COc1cc(CNCc2ccccn2)ccc1OCc1ccccc1C [CBK270108C] | 89.3% |  |
| CS(=O)(=O)NCC1CCCN(C(=O)Nc2cccc(Cl)c2)C1 (stereo not shown) [CBK305736] | 79.5% |  |
| O=C(N/N=C/c1c[nH]c2ccc(Br)cc12)c1ccncc1 [CBK262798] | 116% |  |
| COc1ccc2nc(Nc3nc(-c4cccnc4)cs3)sc2c1 [CBK287482] | 89.1% |  |
| Cc1nc(C)c(CNC(=O)NC2CCCN(c3ccn(C)n3)C2=O)s1 (stereo not shown) [CBK305457] | 86% |  |
| Nc1nc2c(cc1C(=O)NCc1ccccc1)CN(C(=O)CCCc1ccc(F)cc1)CC2 [CBK285887] | 95.3% |  |
| CN1CCC(NC(=O)c2cccc(OCC(=O)N3CCCCC3)c2)C1=O (stereo not shown) [CBK307281] | 78.3% |  |
| O=C(COc1ccccc1)NC(/C=C/c1ccccc1)c1cc(Cl)c2cccnc2c1O (stereo not shown) [CBK263994] | 104% |  |
| COc1ccc(F)cc1-c1ccccc1CC1(C(=O)NCCc2ccccc2)CCOCC1 [CBK286424] | 97.5% |  |
| COc1ccc(C(C)NC(=O)c2cc(-c3ccc(F)cc3)[nH]n2)cc1 (stereo not shown) [CBK288060] | 87% |  |
| CC(=O)N1CCC(c2nc(C3CCCC3)no2)C1 (stereo not shown) [CBK285452] | 104% |  |
| O=C(N[C@H]1CCN2C(=O)c3cc(-c4ccsc4)ccc3NC(=O)[C@@H]2C1)c1cccs1 [CBK289563] | 103% |  |
| Cc1[nH]c2ccccc2c1C(=O)C(=O)Nc1sc(C)c(C)c1C#N [CBK270038] | 85.9% |  |
| CC(C)Cc1nc(Cn2cnc3c(cnn3C)c2=O)no1 [CBK306256] | 90.7% |  |
| CC(C)C(NC(=O)C1C=CCN1S(C)(=O)=O)c1cccs1 (stereo not shown) [CBK282701] | 82.5% |  |

| SMILES | viability at 28.5 h, 10 µM | viability at 28.5 h, 10 µM (bulk resorufin, single well) |
| --- | --- | --- |
| c1ccc(-c2cccc3c2OC2(CCNCC2)OC3)cc1 [CBK061589] |  | 105% |
| CC(C)CCc1c(O)nc(SCCN2CCOCC2)n(-c2ccccc2)c1=O [CBK263363C] | 85.5% |  |
| CS(=O)(=O)c1ccc(Cn2ccnc(OC3CCN(C(=O)c4cccc(C#N)c4)CC3)c2=O)cc1 [CBK161810] | 105% |  |
| Cc1nnc(SCCn2c(N3CCCCC3)nc3c2c(=O)n(C)c(=O)n3C)s1 [CBK269288] | 103% |  |
| Clc1ccc(Cl)c(-c2nc3ccccc3o2)n1 [CBK095353] | 91.6% |  |
| CC(C)(C)NC(=O)CSc1nnc(Cc2cccc3ccccc23)n1-c1ccccc1 [CBK266039] | 118% |  |
| CCCNC(=O)Cn1nc(C)n2c(cc3sc(C)cc32)c1=O [CBK284068] | 86.1% |  |
| Cn1cncc1C(=O)N1CCc2ccccc21 [CBK200412] | 86.7% |  |
| COC(=O)c1ccc(COc2nc3ccccc3nc2/C=C/c2cccc([N+](=O)[O-])c2)cc1 [CBK268776] | 112% |  |
| CCOC(=O)c1c(CN(C)C)n(-c2ccccc2)c2cc(Br)c(OC)cc12 [CBK115360] | 117% |  |
| Cc1cccn2c(=O)c(/C=C3\SC(=S)N(CCCC(=O)O)C3=O)c(N3CCC(C)CC3)nc12 [CBK264793] | 107% |  |
| O=C1C=C(c2ccc([N+](=O)[O-])cc2)Nc2nonc2N1 [CBK261487] | 89.4% |  |
| O=C(c1cncnc1)N1CC[C@H](c2nc3cc(F)ccc3[nH]2)C1 [CBK289376] | 96.8% |  |
| CC(C)CN(Cc1ccc2c(c1)OCO2)C(=O)NCc1ccc(Cl)c(Cl)c1 [CBK159069] | 95.3% |  |
| CCN(C(=O)Cn1c(=O)cc(C)c2ccccc21)C1CCN(C)CC1 [CBK281871] | 86.8% |  |
| CN(C)S(=O)(=O)N1CCN(c2ccnc3cc(Cl)ccc23)CC1 [CBK269785] | 99.2% |  |
| Cc1ccc(OCC(=O)NCC2CCN(c3cnn(C)c(=O)c3)C2)cc1 (stereo not shown) [CBK306693] | 83.6% |  |
